# Tests used:
# [1] = target: T1, Human immunodeficiency virus type 1 integrase (Human immunodeficiency virus 1, UniProt Q7ZJM1); test: Inhibition of HIV1 integrase strand transfer activity
# [2] = target: T1, Human immunodeficiency virus type 1 integrase; test: Inhibition of HIV1 integrase 3' processing activity
# T1 sequence (Q7ZJM1 whole entry): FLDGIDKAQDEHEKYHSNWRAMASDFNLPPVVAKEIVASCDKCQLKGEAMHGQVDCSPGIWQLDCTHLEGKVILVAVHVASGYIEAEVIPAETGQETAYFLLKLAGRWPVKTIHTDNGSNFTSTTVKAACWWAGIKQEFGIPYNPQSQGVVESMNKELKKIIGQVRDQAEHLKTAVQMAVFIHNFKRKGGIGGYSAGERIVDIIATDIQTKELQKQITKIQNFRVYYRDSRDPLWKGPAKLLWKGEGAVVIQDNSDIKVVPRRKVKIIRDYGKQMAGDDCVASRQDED
SMILES,IC50 [1] [µM],IC50 [2] [µM]
COC(=O)C(=O)/C=C(\O)c1ccccc1,> 333,> 333
COC(=O)C(=O)/C=C(\O)c1cccn1Cc1ccc(F)cc1,48,187
